≈ marks a conversion by molar mass, not a printed value. Like-named read-outs stand apart in the source and are kept apart here. Where only a bound is given, the exact number is not on record here.

In experiment [1] the test system is M. tuberculosis transformed with luxABCDE. In words: microbe, parasite or virus in culture. The conditions noted are these: for MIC90 / MBC: Mycobacterium tuberculosis, 168 h. The class given is cell-based, Mycobacterium tuberculosis.
The subject of experiment [2] is non-replicating cultures of M. tuberculosis H37Rv transformed with lux ABCDE. The experiment is described as follows: microbe, parasite or virus in culture. The experiment is classed as cell-based, Mycobacterium tuberculosis. The settings on record: for MIC90 LORA/MABA: ratio of LORA MIC90 to MABA MIC90.
Where [3] appears, read: day 7 of time-kill study, read-out: MBC99.
[4] abbreviates: Mycobacterium tuberculosis, H37RV, […], ≥90% reduction in luminescence, read-out: MIC90 LORA.

Compound `COc1nc2ccc(Br)cc2cc1[C@@H](c1ccccc1)[C@@](O)(CCN(C)C)c1cccc2ccccc12` [Bedaquiline] returned an MIC90 in experiment [1] (day 7 of time-kill study) of 0.031 µM (≈ 0.0172 µg/mL). Further, in experiment [1] (setting [3]), the MBC worked out at 0.124 µM (≈ 0.0689 µg/mL).

In the case of `CO[C@H]1/C=C/O[C@@]2(C)Oc3c(C)c(O)c4c(=O)c(c5oc6cc(N7CCN(CC(C)C)CC7)cc(N7CCN(CC(C)C)CC7)c6nc-5c4c3C2=O)NC(=O)/C(C)=C\C=C\[C@H](C)[C@H](O)[C@@H](C)[C@@H](O)[C@@H](C)[C@H](OC(C)=O)[C@@H]1C` [Compound 17u, 7S,9E,11S,12R,13S,14R,15R,16R,17S,18S,19E,21Z)-2,15,17-trihydroxy-11-methoxy-3,7,12,14,16,18,22-heptamethyl-30,32-bis[4-(2-methylpropyl)piperazin-1-yl]-6,23,37-trioxo-8,27,38-trioxa-24,34-diazahexacyclo[23.11.1.1^4,7.0^5,36.0^26,35.0^28,33]octatriaconta-1,3,5(36)9,19,21,25,28,30,32,34-undecaen-13-yl acetate], in experiment [1], the “MBC99 Day 7 (Lux Assay) MBC Rel to RMP” value is on record as 0.05. Moreover, the MBC in experiment [1] ([…], ≥99% reduction in luminescence, read-out: MBC99 Day 7 (Lux Assay) MBC) was determined as 0.025 µM.

In experiment [1] (day 7 of time-kill study), `NNC(=O)c1ccncc1` [Isoniazid, isoniazid, reference compound] came in with an MIC90 of 0.409 µM (≈ 0.0561 µg/mL). Besides, the MBC in experiment [1] (setting [3]) worked out at 3.59 µM (≈ 0.492 µg/mL).

`O=[N+]([O-])c1cn2c(n1)OC[C@@H](OCc1ccc(OC(F)(F)F)cc1)C2` [Pretomanid, pretomanid, reference compound] displayed an MIC90 in experiment [1] (day 7 of time-kill study) of 0.47 µM (≈ 0.169 µg/mL). In addition, in experiment [1] (setting [3]), the MBC turned out to be 0.597 µM (≈ 0.214 µg/mL).

As to `CO[C@H]1/C=C/O[C@@]2(C)Oc3c(C)c(O)c4c(=O)c(c5oc6cc(N7CCN(CC(C)C)CC7)cc(OCc7ccc(CN8CCNCC8)cc7)c6nc-5c4c3C2=O)NC(=O)/C(C)=C\C=C\[C@H](C)[C@H](O)[C@@H](C)[C@@H](O)[C@@H](C)[C@H](OC(C)=O)[C@@H]1C` [Compound 17b, (7S,9E,11S,12R,13S,14R,15R,16R,17S,18S,19E,21Z)-2,15,17-Trihydroxy-11-methoxy-3,7,12,14,16,18,22-heptamethyl-30-[4-(2-methylpropyl)piperazin-1-yl]-6,23,37-trioxo-32-({4-[(piperazin-1-yl)methyl]phenyl}methoxy)-8,27,38-trioxa-24,34-diazahexacyclo[23.11.1.1^4,7.0^5,36.0^26,35.0^28,33]octatriaconta-1(36)2,4,9,19,21,25,28,30,32,34-undecaen-13-yl acetate], the “MIC90 LORA Rel to RMP” value in experiment [2] is listed as 1.3. Also, the MIC in experiment [2] (setting [4]) was under 0.016 µM.

Take `CO[C@H]1/C=C/O[C@@]2(C)Oc3c(C)c(O)c4c(=O)c(c5oc6cc(N7CCN(C(=O)c8cccc(-n9ccnc9)c8)CC7)cc(C)c6nc-5c4c3C2=O)NC(=O)/C(C)=C\C=C\[C@H](C)[C@H](O)[C@@H](C)[C@@H](O)[C@@H](C)[C@H](OC(C)=O)[C@@H]1C` [Compound 29a, (7S,9E,11S,12R,13S,14R,15R,16R,17S,18S,19E,21Z)-2,15,17-Trihydroxy-30-{4-[3-(1H-imidazol-1-yl)benzoyl]piperazin-1-yl}-11-methoxy-3,7,12,14,16,18,22,32-octamethyl-6,23,37-trioxo-8,27,38-trioxa-24,34-diazahexacyclo[23.11.1.1^4,7.0^5,36.0^26,35.0^28,33]octatriaconta-1(36)2,4,9,19,21,25,28,30,32,34-undecaen-13-yl acetate]: in experiment [2], the “MIC90 LORA Rel to RMP” value was 0.61 and the “MIC90 LORA/MABA” value came to 3.5. The MIC90 in experiment [2] (setting [4]) turned out to be 0.126 µM.

Turning to `CO[C@H]1/C=C/O[C@@]2(C)Oc3c(C)c(O)c4c(=O)c(c5oc6cccc(OCCCCN7CCOCC7)c6nc-5c4c3C2=O)NC(=O)/C(C)=C\C=C\[C@H](C)[C@H](O)[C@@H](C)[C@@H](O)[C@@H](C)[C@H](OC(C)=O)[C@@H]1C` [Compound 5b, (7S,9E,11S,12R,13S,14R,15R,16R,17S,18S,19E,21Z)-2,15,17-Trihydroxy-11-methoxy-3,7,12,14,16,18,22-heptamethyl-32-[4-(morpholin-4-yl)butoxy]-6,23,37-trioxo-8,27,38-trioxa-24,34-diazahexacyclo[23.11.1.1^4,7.0^5,36.0^26,35.0^28,33]octatriaconta-1(36)2,4,9,19,21,25,28(33)29,31,34-undecaen-13-yl acetate], in experiment [2], the “MIC90 LORA Rel to RMP” value was determined as 0.15 and the “MIC90 LORA/MABA” value was 2.4. The MIC in experiment [2] (setting [4]) was 0.05 µM.

As for `CO[C@H]1/C=C/O[C@@]2(C)Oc3c(C)c(O)c4c(=O)c(c5oc6cccc(OCc7cccc(CN8CCN(C(=O)Cn9ccnc9)CC8)c7)c6nc-5c4c3C2=O)NC(=O)/C(C)=C\C=C\[C@H](C)[C@H](O)[C@@H](C)[C@@H](O)[C@@H](C)[C@H](OC(C)=O)[C@@H]1C` [Compound 11e, (7S,9E,11S,12R,13S,14R,15R,16R,17S,18S,19E,21Z)-2,15,17-Trihydroxy-32-{[3-({4-[2-(1H-imidazol-1-yl)acetyl]piperazin-1-yl}methyl)phenyl]methoxy}-11-methoxy-3,7,12,14,16,18,22-heptamethyl-6,23,37-trioxo-8,27,38-trioxa-24,34-diazahexacyclo[23.11.1.1^4,7.0^5,36.0^26,35.0^28,33]octatriaconta-1(36)2,4,9,19,21,25,28,30,32,34-undecaen-13-yl acetate], in experiment [2], the “MIC90 LORA Rel to RMP” value came to 0.26 and the “MIC90 LORA/MABA” value is on record as 1.6. Moreover, the MIC in experiment [2] (setting [4]) worked out at 0.078 µM.

As for `CO[C@H]1/C=C/O[C@@]2(C)Oc3c(C)c(O)c4c(=O)c(c5oc6cccc(OCc7ccc(CN8CCN(C(=O)Cn9ccnc9)CC8)cc7)c6nc-5c4c3C2=O)NC(=O)/C(C)=C\C=C\[C@H](C)[C@H](O)[C@@H](C)[C@@H](O)[C@@H](C)[C@H](OC(C)=O)[C@@H]1C` [Compound 16b, (7S,9E,11S,12R,13S,14R,15R,16R,17S,18S,19E,21Z)-2,15,17-Trihydroxy-32-{[4-({4-[2-(1H-imidazol-1-yl)acetyl]piperazin-1-yl}methyl)phenyl]methoxy}-11-methoxy-3,7,12,14,16,18,22-heptamethyl-6,23,37-trioxo-8,27,38-trioxa-24,34-diazahexacyclo[23.11.1.1^4,7.0^5,36.0^26,35.0^28,33]octatriaconta-1(36)2,4,9,19,21,25,28,30,32,34-undecaen-13-yl acetate], in experiment [2], the “MIC90 LORA Rel to RMP” value was 0.93 and the “MIC90 LORA/MABA” value was 2.0. In addition, in experiment [2] (setting [4]), the MIC stood at 0.057 µM.

Consider `CO[C@H]1/C=C/O[C@@]2(C)Oc3c(C)c(O)c4c(=O)c(c5oc6cccc(OCCCCN7CCN(C(=O)OC(C)(C)C)CC7)c6nc-5c4c3C2=O)NC(=O)/C(C)=C\C=C\[C@H](C)[C@H](O)[C@@H](C)[C@@H](O)[C@@H](C)[C@H](OC(C)=O)[C@@H]1C` [Compound 5c, Tert-Butyl 4-(4-{[(7S,9E,11S,12R,13S,14R,15R,16R,17S,18S,19E,21Z)-13-(acetyloxy)-2,15,17-trihydroxy-11-methoxy-3,7,12,14,16,18,22-heptamethyl-6,23,37-trioxo-8,27,38-trioxa-24,34-diazahexacyclo[23.11.1.1^4,7.0^5,36.0^26,35.0^28,33]octatriaconta-1(36)2,4,9,19,21,25,28(33)29,31,34-undecaen-32-yl]oxy}butyl)piperazine-1-carboxylate], for which, in experiment [2], the “MIC90 LORA Rel to RMP” value is 0.22 and the “MIC90 LORA/MABA” value turned out to be 2.4. Besides, the MIC in experiment [2] (setting [4]) stood at 0.058 µM (≈ 0.0604 µg/mL).

The values are drawn from patent publication US20250188092A1, “RIFAMYCIN ANALOGS” (THE REGENTS OF THE UNIVERSITY OF MICHIGAN, priority 2021, published 2025).
